Reference: patent US20090081174A1 (priority 2005, published 2009)

Tested on: Phytophthora infestans, strain resistant to phenylalanine
Details: listed phosphite salt(s) alone at 750 ppm equivalent phosphorous acid, potato plants, scale 100 to 0

With `O=[PH]([O-])[O-].[Cu+2]` [CuHPO3, copper (II) salt of phosphorous acid] the “Activity (y)” value was 12.
